The text below walks through data of patent US9522120B2, “Compositions and methods of making sustained release liquid formulations” (NEOS THERAPEUTICS, LP, priority 2005, dated 2016).

Series [1] in a line: Dissolution of phenylephrine sustained release coated beads. Type of series: physicochemical. Particulars: when combined with Gauifenesin DC. How it is done:
Due to this effect the testing of the dissolution rate is achieved by first making a mock-up of the finished product. By doing so the suitability of the phenylephrine beads was determined more accurately. Direct specifications for dissolution were determined once data was collected to accurately predict this rate change.

The conditions of series [2]: water and alcohol; cited from earlier work.

As to `CNC[C@H](O)c1cccc(O)c1` [phenylephrine], in series [1], the dissolution rate entry is “accelerated”. On to `COc1ccccc1OCC(O)CO` (centres unmarked) [Guaifenesin, 3(2-methoxyphenoxy)-1,2-propanediol], for which, in series [2], the solubility entry was “soluble in water and alcohol”.
